According to US9902702B2, “Spirocycloheptanes as inhibitors of rock” (BRISTOL-MYERS SQUIBB COMPANY, priority 2014, dated 2018):

These compounds were tested against ROCK2 (Homo sapiens, UniProt O75116) (assay: ROCK assay: phosphorylation of FITC peptide substrate, LABCHIP 3000 mobility shift). Settings: 5 μM ATP, 1.5 μM peptide substrate; read-out: ROCK2 Activity (ROCK IC50 range).
Assay type: biochemical
In short: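 Rho kinase variant phosphorylates 1.5 μM FITC-AHA-AKRRRLSSLRA-OH with 5 μM ATP in 20 mM HEPES pH 7.5, 20 mM MgCl2, 0.015% Brij-35, 4 mM DTT, DMSO <2%. EDTA stops the reaction, and phospho and non-phospho peptides are resolved by LabChip 3000 mobility shift. IC50 from dose-response curve fit.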

Chain of ROCK2 (O75116 whole entry, species assumed): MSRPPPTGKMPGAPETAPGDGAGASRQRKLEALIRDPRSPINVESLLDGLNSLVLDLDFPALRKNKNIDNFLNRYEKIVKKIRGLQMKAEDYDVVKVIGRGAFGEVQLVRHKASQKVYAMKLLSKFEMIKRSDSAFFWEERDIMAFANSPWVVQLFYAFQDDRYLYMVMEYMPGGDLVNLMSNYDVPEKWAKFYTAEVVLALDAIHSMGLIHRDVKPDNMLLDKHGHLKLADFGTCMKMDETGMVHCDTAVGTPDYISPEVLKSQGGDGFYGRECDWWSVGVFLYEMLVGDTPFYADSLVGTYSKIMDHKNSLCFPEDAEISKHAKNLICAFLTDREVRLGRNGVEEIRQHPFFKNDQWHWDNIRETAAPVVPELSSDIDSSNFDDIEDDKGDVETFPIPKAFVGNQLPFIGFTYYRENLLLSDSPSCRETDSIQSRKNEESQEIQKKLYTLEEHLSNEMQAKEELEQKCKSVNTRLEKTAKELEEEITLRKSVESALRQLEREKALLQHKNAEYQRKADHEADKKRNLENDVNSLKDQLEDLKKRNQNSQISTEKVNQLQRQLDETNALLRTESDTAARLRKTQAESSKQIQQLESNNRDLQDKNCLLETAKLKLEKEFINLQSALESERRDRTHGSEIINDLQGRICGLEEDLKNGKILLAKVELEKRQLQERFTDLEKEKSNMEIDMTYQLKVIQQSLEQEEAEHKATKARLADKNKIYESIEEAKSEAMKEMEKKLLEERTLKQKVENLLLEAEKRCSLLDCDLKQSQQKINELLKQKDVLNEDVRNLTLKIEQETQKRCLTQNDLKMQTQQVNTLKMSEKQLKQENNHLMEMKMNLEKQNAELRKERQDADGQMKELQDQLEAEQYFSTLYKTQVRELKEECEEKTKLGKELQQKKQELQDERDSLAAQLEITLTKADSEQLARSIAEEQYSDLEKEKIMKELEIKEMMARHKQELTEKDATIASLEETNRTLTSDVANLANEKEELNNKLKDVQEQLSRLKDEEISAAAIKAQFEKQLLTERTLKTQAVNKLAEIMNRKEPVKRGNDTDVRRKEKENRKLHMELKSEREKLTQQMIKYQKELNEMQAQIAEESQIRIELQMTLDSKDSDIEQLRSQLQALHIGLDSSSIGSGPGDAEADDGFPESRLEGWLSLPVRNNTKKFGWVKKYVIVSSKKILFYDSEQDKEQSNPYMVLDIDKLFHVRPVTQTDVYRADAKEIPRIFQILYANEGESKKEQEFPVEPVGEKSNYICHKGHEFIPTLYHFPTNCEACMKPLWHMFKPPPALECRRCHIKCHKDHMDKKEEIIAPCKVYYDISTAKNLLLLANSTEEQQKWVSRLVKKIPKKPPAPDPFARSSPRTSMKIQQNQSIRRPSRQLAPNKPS

SMILES | IC50 [nM]
Cn1cc(-c2ccc(NC(=O)NC3CC4(C3)CC(c3n[nH]c(=O)c5ccccc35)C4)cc2)c(C(F)(F)F)n1 [Example 232, 1-(4-(1-methyl-3-(trifluoromethyl)-1H-pyrazol-4-yl)phenyl)-3-((aR)-6-(4-oxo-3,4-dihydrophthalazin-1-yl)spiro[3.3]heptan-2-yl)urea] | 5.1 to 15
Cc1nn(C)c(C)c1-c1ccc(NC(=O)NC2CC3(C2)CC(c2n[nH]c(=O)c4ccccc24)C3)cc1 [Example 233, 1-((aR)-6-(4-oxo-3,4-dihydrophthalazin-1-yl)spiro[3.3]heptan-2-yl)-3-(4-(1,3,5-trimethyl-1H-pyrazol-4-yl)phenyl)urea] | 5.1 to 15
O=C(NC1CC2(C1)CC(c1n[nH]c(=O)c3ccccc13)C2)N1CCc2cc(CCC(F)(F)F)ccc21 [Example 245, N-((aR)-6-(4-oxo-3,4-dihydrophthalazin-1-yl)spiro[3.3]heptan-2-yl)-5-(3,3,3-trifluoropropyl)indoline-1-carboxamide] | 5.1 to 15
Cc1nn(C)c(C)c1-c1ccc2c(c1)CN(C(=O)NC1CC3(C1)CC(c1n[nH]c(=O)c4ccccc14)C3)C2 [Example 246, N-((aR)-6-(4-oxo-3,4-dihydrophthalazin-1-yl)spiro[3.3]heptan-2-yl)-5-(1,3,5-trimethyl-1H-pyrazol-4-yl)isoindoline-2-carboxamide] | 2.01 to 5
O=C(NC1CC2(C1)CC(c1n[nH]c(=O)c3ccccc13)C2)N1Cc2ccc(-c3cnn(C4CC4)c3)cc2C1 [Example 247, 5-(1-cyclopropyl-1H-pyrazol-4-yl)-N-((aR)-6-(4-oxo-3,4-dihydrophthalazin-1-yl)spiro[3.3]heptan-2-yl)isoindoline-2-carboxamide] | 2.01 to 5
Cn1cc(-c2ccc3c(c2)CN(C(=O)NC2CC4(C2)CC(c2n[nH]c(=O)c5ccccc25)C4)C3)c(C(F)(F)F)n1 [Example 248, 5-(1-methyl-3-(trifluoromethyl)-1H-pyrazol-4-yl)-N-((aR)-6-(4-oxo-3,4-dihydrophthalazin-1-yl)spiro[3.3]heptan-2-yl)isoindoline-2-carboxamide] | 5.1 to 15
CC(C)n1cc(-c2ccc3c(c2)CN(C(=O)NC2CC4(C2)CC(c2n[nH]c(=O)c5ccccc25)C4)C3)c(C(F)(F)F)n1 [Example 249, 5-(1-isopropyl-3-(trifluoromethyl)-1H-pyrazol-4-yl)-N-((aR)-6-(4-oxo-3,4-dihydrophthalazin-1-yl)spiro[3.3]heptan-2-yl)isoindoline-2-carboxamide] | 5.1 to 15
O=C(NC1CC2(C1)CC(c1n[nH]c(=O)c3ccccc13)C2)N1Cc2ccc(-c3cnn(C4CCOCC4)c3)cc2C1 [Example 251, N-((aR)-6-(4-oxo-3,4-dihydrophthalazin-1-yl)spiro[3.3]heptan-2-yl)-5-(1-(tetrahydro-2H-pyran-4-yl)-1H-pyrazol-4-yl)isoindoline-2-carboxamide] | 5.1 to 15
CC(C)(C)n1cc(-c2ccc3c(c2)CN(C(=O)NC2CC4(C2)CC(c2n[nH]c(=O)c5ccccc25)C4)C3)cn1 [Example 252, 5-(1-(tert-butyl)-1H-pyrazol-4-yl)-N-((aR)-6-(4-oxo-3,4-dihydrophthalazin-1-yl)spiro[3.3]heptan-2-yl)isoindoline-2-carboxamide] | 5.1 to 15
CC1(C)CN(C(=O)NC2CC3(C2)CC(c2n[nH]c(=O)c4ccccc24)C3)c2ccccc21 (stereo not drawn) [Example 255] | 5.1 to 15
O=C(NC1CC2(C1)CC(c1n[nH]c(=O)c3ccccc13)C2)N1CCc2cccnc21 [Example 256, N-((aR)-6-(4-oxo-3,4-dihydrophthalazin-1-yl)spiro[3.3]heptan-2-yl)-2,3-dihydro-1H-pyrrolo[2,3-b]pyridine-1-carboxamide] | 15.1 to 100
O=C(NC1CC2(C1)CC(c1n[nH]c(=O)c3ccccc13)C2)N1Cc2cccnc2C1 (stereo not drawn) [Example 257] | 15.1 to 100
O=C(NC1CC2(C1)CC(c1n[nH]c(=O)c3ccccc13)C2)N1CCc2ccc(C(F)(F)F)cc21 [Example 259, N-((aR)-6-(4-oxo-3,4-dihydrophthalazin-1-yl)spiro[3.3]heptan-2-yl)-6-(trifluoromethyl)indoline-1-carboxamide] | 5.1 to 15
O=C(NC1CC2(C1)CC(c1n[nH]c(=O)c3ccccc13)C2)N1CC(CN2CCOCC2)c2ccccc21 [Example 261, 3-(morpholinomethyl)-N-((aR)-6-(4-oxo-3,4-dihydrophthalazin-1-yl)spiro[3.3]heptan-2-yl)indoline-1-carboxamide] | 15.1 to 100
Cc1ccc(-c2ncc3c(n2)CN(C(=O)NC2CC4(C2)CC(c2n[nH]c(=O)c5ccccc25)C4)C3)cc1 [Example 262, N-((aR)-6-(4-oxo-3,4-dihydrophthalazin-1-yl)spiro[3.3]heptan-2-yl)-2-(p-tolyl)-5H-pyrrolo[3,4-d]pyrimidine-6(7H)-carboxamide] | 100 to 2100

The next lines start with the values.

IC50 [nM] | SMILES
2.01 to 5 | O=C(N[C@H]1CC2(C1)C[C@H](c1n[nH]c(=O)c3ccccc31)C2)N1CCc2cc(Br)ccc21 (stereo partly drawn) [Example 234, 5-Bromo-N-((aR)-6-(4-oxo-3,4-dihydrophthalazin-1-yl)spiro[3.3]heptan-2-yl)indoline-1-carboxamide]
0.2 to 2 | Cn1cc(-c2ccc3c(c2)CCN3C(=O)NC2CC3(C2)CC(c2n[nH]c(=O)c4ccccc24)C3)cn1 [Example 235, 5-(1-methyl-1H-pyrazol-4-yl)-N-((aR)-6-(4-oxo-3,4-dihydrophthalazin-1-yl)spiro[3.3]heptan-2-yl)indoline-1-carboxamide]
0.2 to 2 | O=C(NC1CC2(C1)CC(c1n[nH]c(=O)c3ccccc13)C2)N1CCc2cc(-c3cnn(C4CC4)c3)ccc21 [Example 236, 5-(1-cyclopropyl-1H-pyrazol-4-yl)-N-((aR)-6-(4-oxo-3,4-dihydrophthalazin-1-yl)spiro[3.3]heptan-2-yl)indoline-1-carboxamide]
2.01 to 5 | Cc1nn(C)c(C)c1-c1ccc2c(c1)CCN2C(=O)NC1CC2(C1)CC(c1n[nH]c(=O)c3ccccc13)C2 [Example 237, N-((aR)-6-(4-oxo-3,4-dihydrophthalazin-1-yl)spiro[3.3]heptan-2-yl)-5-(1,3,5-trimethyl-1H-pyrazol-4-yl)indoline-1-carboxamide]
2.01 to 5 | Cn1cc(-c2ccc3c(c2)CCN3C(=O)NC2CC3(C2)CC(c2n[nH]c(=O)c4ccccc24)C3)c(C(F)(F)F)n1 [Example 238, 5-(1-methyl-3-(trifluoromethyl)-1H-pyrazol-4-yl)-N-((aR)-6-(4-oxo-3,4-dihydrophthalazin-1-yl)spiro[3.3]heptan-2-yl)indoline-1-carboxamide]
0.2 to 2 | [2H]C([2H])([2H])n1cc(-c2ccc3c(c2)CCN3C(=O)NC2CC3(C2)CC(c2n[nH]c(=O)c4ccccc24)C3)cn1 [Example 239, 5-(1-(^2H3)methyl-1H-pyrazol-4-yl)-N-((aR)-6-(4-oxo-3,4-dihydrophthalazin-1-yl)spiro[3.3]heptan-2 yl)indoline-1-carboxamide]
2.01 to 5 | O=C(NC1CC2(C1)CC(c1n[nH]c(=O)c3ccccc13)C2)N1CCc2cc(-c3cnn(C4CCOCC4)c3)ccc21 [Example 240, N-((aR)-6-(4-oxo-3,4-dihydrophthalazin-1-yl)spiro[3.3]heptan-2-yl)-5-(1-(tetrahydro-2H-pyran-4-yl)-1H-pyrazol-4-yl)indoline-1-carboxamide]
2.01 to 5 | O=C(NC1CC2(C1)CC(c1n[nH]c(=O)c3ccccc13)C2)N1CCc2cc(-c3cnn(CC4CC4)c3)ccc21 [Example 241, 5-(1-(cyclopropylmethyl)-1H-pyrazol-4-yl)-N-((aR)-6-(4-oxo-3,4-dihydrophthalazin-1-yl)spiro[3.3]heptan-2-yl)indoline-1-carboxamide]
2.01 to 5 | CC(C)(C)n1cc(-c2ccc3c(c2)CCN3C(=O)NC2CC3(C2)CC(c2n[nH]c(=O)c4ccccc24)C3)cn1 [Example 242, 5-(1-(tert-butyl)-1H-pyrazol-4-yl)-N-((aR)-6-(4-oxo-3,4-dihydrophthalazin-1-yl)spiro[3.3]heptan-2-yl)indoline-1-carboxamide]
2.01 to 5 | O=C(NC1CC2(C1)CC(c1n[nH]c(=O)c3ccccc13)C2)N1CCc2cc(-c3cnn(C4CCOC4)c3)ccc21 [Example 243, N-((aR)-6-(4-oxo-3,4-dihydrophthalazin-1-yl)spiro[3.3]heptan-2-yl)-5-(1-(tetrahydrofuran-3-yl)-1H-pyrazol-4-yl)indoline-1-carboxamide]
5.1 to 15 | CC(C)n1cc(-c2ccc3c(c2)CCN3C(=O)NC2CC3(C2)CC(c2n[nH]c(=O)c4ccccc24)C3)c(C(F)(F)F)n1 [Example 244, 5-(1-isopropyl-3-(trifluoromethyl)-1H-pyrazol-4-yl)-N-((aR)-6-(4-oxo-3,4-dihydrophthalazin-1-yl)spiro[3.3]heptan-2-yl)indoline-1-carboxamide]
5.1 to 15 | Cn1cc(-c2ccc3c(c2)CN(C(=O)NC2CC4(C2)CC(c2n[nH]c(=O)c5ccccc25)C4)C3)cn1 [Example 250, 5-(1-methyl-1H-pyrazol-4-yl)-N-((aR)-6-(4-oxo-3,4-dihydrophthalazin-1-yl)spiro[3.3]heptan-2-yl)isoindoline-2-carboxamide]
5.1 to 15 | [2H]C([2H])([2H])n1cc(-c2ccc3c(c2)CN(C(=O)NC2CC4(C2)CC(c2n[nH]c(=O)c5ccccc25)C4)C3)cn1 [Example 253, 5-(1-(^2H3)methyl-1H-pyrazol-4-yl)-N-((aR)-6-(4-oxo-3,4-dihydrophthalazin-1-yl)spiro[3.3]heptan-2-yl)isoindoline-2-carboxamide]
5.1 to 15 | COc1ccc2c(c1)CCN2C(=O)NC1CC2(C1)CC(c1n[nH]c(=O)c3ccccc13)C2 [Example 258, 5-methoxy-N-((aR)-6-(4-oxo-3,4-dihydrophthalazin-1-yl)spiro[3.3]heptan-2-yl)indoline-1-carboxamide]
5.1 to 15 | CN(C)S(=O)(=O)c1ccc2c(c1)CCN2C(=O)NC1CC2(C1)CC(c1n[nH]c(=O)c3ccccc13)C2 [Example 260, 5-(N,N-dimethylsulfamoyl)-N-((aR)-6-(4-oxo-3,4-dihydrophthalazin-1-yl)spiro[3.3]heptan-2-yl)indoline-1-carboxamide]
